Measurements reported in the supplement of paper PMC3974653.
Counter-ions that a name gives are not always drawn.

system: MTT (mouse pheochromocytoma); assay: IC50 of cell viability (ATP content); settings: (24 or 48 h)
In short: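 The IC50 was fitted with a four-parameter logistic equation to normalised CellTiter-Glo ATP luminescence from MTT mouse pheochromocytoma cells. These cells, in white 1536-well plates, had been treated for 24 or 48 hrs with library compounds at 8 final concentrations between 0.5 nM and 46 µM, and luminescence was read after 15 minutes. Positive-control wells served as 100% and DMSO wells as 0%.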

Structure (SMILES)	IC50 of cell viability
O=[N+]([O-])c1cccc([S+](=O)([O-])NCCN[S+](=O)([O-])c2cccc([N+](=O)[O-])c2)c1 [Dinsed]	> 46 µM
CCCCCCCCOC(=O)c1ccccc1C(=O)OCCCCCCCC [Dioctyl phthalate]	> 46 µM
CCCC[C@@H](CC)COC(=O)C[C@H](C(=O)OC[C@H](CC)CCCC)S(=O)(=O)[O-] [Dioctyl sulfosuccinate sodium salt]	> 46 µM
COc1ccc(C(=O)c2ccccc2O)c(O)c1 [Dioxybenzone]	> 46 µM
O=C(Nc1ccccc1)OC[C@H](CN1CCCCC1)OC(=O)Nc1ccccc1 [Diperodon hydrochloride]	> 46 µM
C[N+]1(C)CCC(=C(c2ccccc2)c2ccccc2)CC1 [Diphemanil methylsulfate]	> 46 µM
CN(C)CCOC(c1ccccc1)c1ccccc1 [Diphenhydramine]	> 46 µM
OC(CCCN1CCCCC1)(c1ccccc1)c1ccccc1 [Diphenidol]	> 46 µM
CCOC(=O)C1(c2ccccc2)CCN(CCC(C#N)(c2ccccc2)c2ccccc2)CC1 [Diphenoxylate]	> 46 µM
O=C(Oc1ccccc1)c1cccc(C(=O)Oc2ccccc2)c1 [Diphenyl isophthalate]	> 46 µM
CN1CCC(OC(c2ccccc2)c2ccccc2)CC1 [Diphenylpyraline hydrochloride]	> 46 µM
CNC[C@H](O)c1ccc(OC(=O)C(C)(C)C)c(OC(=O)C(C)(C)C)c1 [Dipivefrin hydrochloride]	> 46 µM
Cn1c(=O)c2c(ncn2C[C@@H](O)CO)n(C)c1=O [Diprophylline]	> 46 µM
[Na+].CN(C[S]([O-])(=O)=O)\C1=C(/C)N(C)N(C1=O)C2=CC=CC=C2 [Dipyrone]	> 46 µM
C[Si](C)(C)O[Si](C)(C)C [Disiloxane, hexamethyl-]	> 46 µM
CC(C)N(CC[C@@](C(N)=O)(c1ccccc1)c1ccccn1)C(C)C [Disopyramide]	> 46 µM
CCOC(=S)SSC(=S)OCC [Dixanthogen]	> 46 µM
CC(=O)O[C@@]12CO[C@@H]1C[C@H](O)[C@]3(C)[C@@H]2[C@H](OC(=O)C4=CC=CC=C4)[C@]5(O)C[C@H](OC(=O)C(O)[C@@H](NC(=O)OC(C)(C)C)C6=CC=CC=C6)C(=C(/[C@@H](O)C3=O)C5(C)C)/C (stereo not given in full) [Docetaxel]	> 46 µM
CCCCCCCCCC(CC)c1ccc(S(=O)(=O)[O-])cc1.[Na+] (stereo not given) [Dodecylbenzenesulfonic acid, sodium salt]	> 46 µM
CN(CCOc1ccc(NS(C)(=O)=O)cc1)CCc1ccc(NS(C)(=O)=O)cc1 [Dofetilide]	> 46 µM
Oc1ccc(CCNCCCCCCNCCc2ccccc2)cc1O [Dopexamine]	> 46 µM
CO[C@H]1C[C@@H](O[C@@H]2[C@@H](C)O[C@@H](O[C@@H]3/C(C)=C/CC4C[C@@H](C[C@]5(C=C[C@@H](C)[C@H](C6CCCCC6)O5)O4)OC(=O)[C@@H]4C=C(C)[C@@H](O)[C@H]5OC/C(=C\C=C\[C@@H]3C)[C@]54O)C[C@H]2OC)O[C@@H](C)[C@@H]1O [Doramectin]	> 46 µM
CCN[C@@H]1C[C@H](C)[S+](=O)([O-])c2sc([S+](N)(=O)[O-])cc21 [Dorzolamide hydrochloride]	> 46 µM
CN(C)CC/C=C1\c2ccccc2CSc2ccccc21 [Dosulepin hydrochloride]	> 46 µM
COc1cc2nc(N3CCN(C(=O)[C@H]4COc5ccccc5O4)CC3)nc(N)c2cc1OC.C[S+](=O)([O-])O [Doxazosin mesylate]	> 46 µM

Structure (SMILES)	IC50 of cell viability
CN(C)CC/C=C1\c2ccccc2COc2ccccc21 [Doxepin hydrochloride]	> 46 µM
C[C@H]1O[C@H]([C@H](O)[C@@H]1O)N2\C=C(F)/C(=O)NC2=O [Doxifluridine]	> 46 µM
Cn1c(=O)c2c(ncn2CC2OCCO2)n(C)c1=O [Doxofylline]	> 46 µM
C[C@H]1[C@H]\2[C@H](O)[C@H]3[C@H](N(C)C)\C(=C(\C(N)=O)C(=O)[C@]3(O)\C(=C2C(=O)C4=C1C=CC=C4O)O)O [Doxycycline hydrochloride]	> 46 µM
CN(C)CCO[C@](C)(c1ccccc1)c1ccccn1.O=C(O)CCC(=O)O [Doxylamine succinate]	> 46 µM
Cc1ccc(O)c(-n2nc3ccccc3n2)c1 [Drometrizole]	> 46 µM
CCCCc1oc2ccc(N[S+](C)(=O)[O-])cc2c1C(=O)c1ccc(OCCCN(CCCC)CCCC)cc1 [Dronedarone]	> 46 µM
FC1=CC=C(C=C1)C(=O)CCCN2CC\C(=C/C2)N3C(=O)NC4=C3C=CC=C4 [Droperidol]	> 46 µM
NC(C(=O)O)C(O)c1ccc(O)c(O)c1 (stereo not given) [Droxidopa]	> 46 µM
C[C@]12C=CC(=O)N[C@@H]1CC[C@@H]1C2CC[C@]2(C)C(C(=O)Nc3cc(C(F)(F)F)ccc3C(F)(F)F)CC[C@@H]12 (stereo not given in full) [Dutasteride]	> 46 µM
CCCCOc1ccc(C(=O)CCN2CCCCC2)cc1 [Dyclonine hydrochloride]	> 46 µM
CC(=O)[C@@H]1CC[C@@H]2[C@@H]3\C=C/C4=C/C(=O)CC[C@@]4(C)[C@H]3CC[C@@]12C [Dydrogesterone]	> 46 µM
CC(C)c1cc2c(cc1[S+](=O)([O-])O)[C@@]1(C)CCC[C@@](C)(C(=O)O)[C@@H]1CC2 [ECABET SODIUM]	> 46 µM
CN1CCc2cc(Cl)c(O)cc2[C@H]2c3ccccc3CC[C@@H]21 [ECOPIPAMUM]	> 46 µM
O=C(O)CN(CCN(CC(=O)O)CC(=O)O)CC(=O)O [EDETATE CALCIUM DISODIUM]	> 46 µM
CC(O)CN(CCN(CC(C)O)CC(C)O)CC(C)O (stereo not given) [EDETOLUM]	> 46 µM
CCC1(CC2=C(O1)C=CC=C2)\C3=N\CCN3 (stereo not given) [EFAROXAN]	> 46 µM
O=C1Nc2ccc(Cl)cc2C(C#CC2CC2)(C(F)(F)F)O1 (stereo not given) [EFAVIRENZ]	> 46 µM
CCc1cc([S+](=O)([O-])[O][Na])c2cc(C(C)C)cccc1-2 [EGUALEN SODIUM]	> 46 µM
CC/C=C\C/C=C\C/C=C\C/C=C\C/C=C\CCCC(=O)O [EICOSAPENTAENOIC ACID]	> 46 µM
CN1CCC[C@@H]1Cc1c[nH]c2ccc(CC[S+](=O)([O-])c3ccccc3)cc12 [ELETRIPTAN HYDROBROMIDE]	> 46 µM
O=c1oc2c(O)c(O)cc3c(=O)oc4c(O)c(O)cc1c4c23 [ELLAGIC ACID]	> 46 µM
c1cc2c(c(N3CCNCC3)c1)OCCO2 [ELTOPRAZINUM]	> 46 µM
CCOCCn1c(N2CCCN(C)CC2)nc2ccccc21 [EMEDASTINE DIFUMARATE]	> 46 µM
CCOC(=O)c1ccc(OCCN2C[C@H](O)[C@@H](O)[C@H](O)[C@H]2CO)cc1 [EMIGLITATE]	> 46 µM
